Like-named read-outs stand apart in the source and are kept apart here.
Tests used:
[1] = in vivo; settings: both, Wistar Han, rat, po
Source text: Parameters monitored included morbidity/mortality, clinical signs, body weight, food consumption, hematology and serum clinical chemistry. Main study animals were killed on the day after the last dose and necropsied. Selected organs were weighed. Organ/tissue samples were fixed and preserved at necropsy. Following the macroscopic examination, selected organs/tissues were examined histopathologically and compared to the control group. Satellite animals were sampled for toxicokinetics on days 1 and 14, at various time-points after treatment.

[2] = target: CaV1.2 (Homo sapiens, UniProt Q13936); assay: in vitro
[3] = Compartmental PK modelling and repeat-dose simulation; design: species or system hamsters
Protocol: To support pharmacokinetic/pharmacodynamic (PKPD) analysis, data in mice and hamsters were also analyzed by compartmental modeling using Phoenix WinNonlin (version 8.2; Certara, Princeton, NJ). For each dose level, an extravascular dosing, single compartment disposition model was fit to the combined Day 1/Day 5 repeat dose plasma data. The model was parameterized with a single volume term (V/F), and with first order absorption (K01) and elimination (K10) rate constants. Initial values for the parameter estimates were obtained by fitting of the model to the Day 1 data at the lowest dose level only, and the same initial values were used across the dose range. Experimental data used in model fitting were the mean concentration-time profiles and the average dose administered to each group. The weighting scheme (1/Y2 for mouse and 1/Y for hamster) was selected based on goodness of fit of the peak region of the experimental profiles. Parameter estimates obtained through fitting were used to simulate full repeat-dose plasma concentration-time profiles with both once-daily and twice-daily (dosing at […]) administration at each dose level and treatment duration used in the efficacy studies.

[4] = In vitro cytotoxicity assay; type: cell-based; settings: human, HepG2 human hepatocellular carcinoma cells
[5] = target: T1, MATE2-K (Homo sapiens, UniProt Q86VL8); assay: Drug transporter inhibition panel; type: in vitro ADME
T1 construct: Eurofins
Source text: (§1) Listed values represent the percent change relative to the DMSO control activity. When an IC50 had to be determined, eight different concentrations were included. All values are the mean of assay readout duplicates.

[6] = target: T2, OCT1 (Homo sapiens, UniProt O15245); assay: Drug transporter inhibition panel; type: in vitro ADME; settings: 1 and 10 μM
T2 construct: Eurofins
Source text: as §1

[7] = target: T3, OCT2 (Homo sapiens, UniProt O15244); assay: Drug transporter inhibition panel; type: in vitro ADME; settings: 1 and 10 μM
T3 construct: Eurofins
Source text: as §1

[8] = target: T4, OATP1B1 (Homo sapiens, UniProt Q9Y6L6); assay: Drug transporter inhibition panel; type: in vitro ADME
T4 construct: Eurofins
Source text: as §1

[9] = target: BCRP (Homo sapiens, UniProt Q9UNQ0); assay: Drug transporter inhibition panel; type: in vitro ADME; settings: 1 and 10 μM
Source text: as §1

[10] = target: T5, OAT3 (Homo sapiens, UniProt Q8TCC7); assay: Drug transporter inhibition panel; type: in vitro ADME; settings: 1 and 10 μM
T5 construct: Eurofins
T5 sequence (Q8TCC7 whole entry): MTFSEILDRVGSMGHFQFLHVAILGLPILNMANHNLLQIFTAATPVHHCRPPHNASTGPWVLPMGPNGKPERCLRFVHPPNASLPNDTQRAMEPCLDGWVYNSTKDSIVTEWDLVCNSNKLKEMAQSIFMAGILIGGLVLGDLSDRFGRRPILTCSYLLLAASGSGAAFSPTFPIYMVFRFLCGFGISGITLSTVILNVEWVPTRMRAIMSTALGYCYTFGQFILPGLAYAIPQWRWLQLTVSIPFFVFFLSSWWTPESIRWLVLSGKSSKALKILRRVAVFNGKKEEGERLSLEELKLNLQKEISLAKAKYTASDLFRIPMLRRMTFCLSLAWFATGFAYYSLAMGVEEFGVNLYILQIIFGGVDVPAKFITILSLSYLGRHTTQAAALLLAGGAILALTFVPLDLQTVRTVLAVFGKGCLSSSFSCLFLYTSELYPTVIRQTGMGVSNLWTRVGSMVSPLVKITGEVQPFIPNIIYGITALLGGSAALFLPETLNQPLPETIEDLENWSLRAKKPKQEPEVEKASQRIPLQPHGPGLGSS
Source text: as §1

[11] = target: T6, OAT1 (Homo sapiens, UniProt Q4U2R8); assay: Drug transporter inhibition panel; type: in vitro ADME; settings: 1 and 10 μM
T6 construct: Eurofins
Source text: as §1

[12] = target: BSEP (Homo sapiens, UniProt O95342); assay: Drug transporter inhibition panel; type: in vitro ADME; settings: 1 and 10 μM
Chain of BSEP (O95342 whole entry, species assumed): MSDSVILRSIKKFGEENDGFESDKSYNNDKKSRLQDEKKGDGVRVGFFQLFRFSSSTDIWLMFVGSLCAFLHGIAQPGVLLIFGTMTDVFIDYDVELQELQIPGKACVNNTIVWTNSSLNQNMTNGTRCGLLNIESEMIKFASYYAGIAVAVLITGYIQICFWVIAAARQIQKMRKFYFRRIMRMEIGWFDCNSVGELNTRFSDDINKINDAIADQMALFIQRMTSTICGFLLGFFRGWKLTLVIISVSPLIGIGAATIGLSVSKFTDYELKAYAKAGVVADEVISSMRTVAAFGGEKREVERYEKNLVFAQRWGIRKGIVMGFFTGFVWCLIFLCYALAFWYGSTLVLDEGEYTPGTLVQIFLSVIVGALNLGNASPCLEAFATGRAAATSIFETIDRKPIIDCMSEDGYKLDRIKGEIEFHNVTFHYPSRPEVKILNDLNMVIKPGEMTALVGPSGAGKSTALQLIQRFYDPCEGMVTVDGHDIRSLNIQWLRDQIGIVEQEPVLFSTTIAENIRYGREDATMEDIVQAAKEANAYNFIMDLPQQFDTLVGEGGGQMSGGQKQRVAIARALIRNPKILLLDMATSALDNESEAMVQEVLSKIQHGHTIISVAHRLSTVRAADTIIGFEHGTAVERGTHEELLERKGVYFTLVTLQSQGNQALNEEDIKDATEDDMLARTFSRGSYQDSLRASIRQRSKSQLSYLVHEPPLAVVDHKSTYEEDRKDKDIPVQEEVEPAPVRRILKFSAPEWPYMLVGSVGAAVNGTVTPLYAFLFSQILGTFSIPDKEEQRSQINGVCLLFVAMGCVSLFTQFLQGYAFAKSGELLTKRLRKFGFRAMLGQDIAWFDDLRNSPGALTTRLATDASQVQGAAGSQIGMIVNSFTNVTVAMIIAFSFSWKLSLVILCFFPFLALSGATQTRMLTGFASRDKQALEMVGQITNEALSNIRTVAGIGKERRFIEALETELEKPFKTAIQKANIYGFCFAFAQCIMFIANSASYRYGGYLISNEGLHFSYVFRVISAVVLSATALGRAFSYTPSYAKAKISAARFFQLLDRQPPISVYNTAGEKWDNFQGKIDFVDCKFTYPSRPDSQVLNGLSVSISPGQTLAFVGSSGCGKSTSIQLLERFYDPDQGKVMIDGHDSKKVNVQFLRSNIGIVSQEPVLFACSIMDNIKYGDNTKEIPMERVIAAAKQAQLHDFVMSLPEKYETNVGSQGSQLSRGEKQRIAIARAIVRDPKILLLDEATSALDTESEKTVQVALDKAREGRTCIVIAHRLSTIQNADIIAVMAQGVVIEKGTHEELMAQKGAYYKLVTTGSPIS
Source text: as §1

[13] = target: T7, OATP1B3 (Homo sapiens, UniProt Q9NPD5); assay: Drug transporter inhibition panel; type: in vitro ADME
T7 construct: Eurofins
Source text: as §1

[14] = Binding to hepatocytes, calculated from microsomal binding; type: in vitro ADME; settings: human, 1 x 10^6 cells/mL, read-out: hepatocyte fraction unbound
Protocol: Dialysis was conducted for 6 h and parallel non-dialyzed samples were included to confirm the absence of compound degradation. Binding to hepatocytes (at a cell density of 1 x 10^6 cells/mL) was calculated from the measured microsomal binding (at 1 mg/mL) as described previously ([26]). The fraction unbound (fu) was determined from the ratio of the dialysate to the donor concentration, assuming that the system was at steady state at the end of the dialysis period. For plasma, the data were corrected for the dilution factor to give a binding value for neat plasma according to previously published methods ([27]).

[15] = test system: THP-1; assay: MitoXpress oxygen consumption assay; type: cell-based
[16] = test system: NMDA receptor; assay: In vitro pharmacology panel (Eurofins); type: binding, rat; settings: 10 µM
Source text: as §1

[17] = test system: BZD (central); assay: In vitro pharmacology panel (Eurofins); type: binding, rat; settings: 10 µM
Source text: as §1

[18] = test system: KV channel; assay: In vitro pharmacology panel (Eurofins); type: binding, rat; settings: 10 µM
Source text: as §1

[19] = test system: Ca2+ channel, (L,dihydropyridine site); assay: In vitro pharmacology panel (Eurofins); type: binding, rat; settings: 10 µM
Source text: as §1

[20] = test system: Na+ channel (site 2); assay: In vitro pharmacology panel (Eurofins); type: binding, rat; settings: 10 µM
Source text: as §1

[21] = hamster, plasma, po, Hamsters, 12.5 mg/kg, fitted
[22] = hamster, plasma, po, Hamsters, 25 mg/kg, fitted
[23] = hamster, plasma, po, Hamsters, 50 mg/kg, fitted
[24] = hamsters, 3.125 mg/kg bid, 5 days, simulated
[25] = hamsters, 12.5 mg/kg bid, 5 days, simulated
[26] = hamsters, 12.5 mg/kg qd, 5 days, simulated
[27] = hamsters, 25 mg/kg qd, 5 days, simulated
[28] = hamsters, 50 mg/kg qd, 5 days, simulated

Chain of CaV1.2 (Q13936 whole entry): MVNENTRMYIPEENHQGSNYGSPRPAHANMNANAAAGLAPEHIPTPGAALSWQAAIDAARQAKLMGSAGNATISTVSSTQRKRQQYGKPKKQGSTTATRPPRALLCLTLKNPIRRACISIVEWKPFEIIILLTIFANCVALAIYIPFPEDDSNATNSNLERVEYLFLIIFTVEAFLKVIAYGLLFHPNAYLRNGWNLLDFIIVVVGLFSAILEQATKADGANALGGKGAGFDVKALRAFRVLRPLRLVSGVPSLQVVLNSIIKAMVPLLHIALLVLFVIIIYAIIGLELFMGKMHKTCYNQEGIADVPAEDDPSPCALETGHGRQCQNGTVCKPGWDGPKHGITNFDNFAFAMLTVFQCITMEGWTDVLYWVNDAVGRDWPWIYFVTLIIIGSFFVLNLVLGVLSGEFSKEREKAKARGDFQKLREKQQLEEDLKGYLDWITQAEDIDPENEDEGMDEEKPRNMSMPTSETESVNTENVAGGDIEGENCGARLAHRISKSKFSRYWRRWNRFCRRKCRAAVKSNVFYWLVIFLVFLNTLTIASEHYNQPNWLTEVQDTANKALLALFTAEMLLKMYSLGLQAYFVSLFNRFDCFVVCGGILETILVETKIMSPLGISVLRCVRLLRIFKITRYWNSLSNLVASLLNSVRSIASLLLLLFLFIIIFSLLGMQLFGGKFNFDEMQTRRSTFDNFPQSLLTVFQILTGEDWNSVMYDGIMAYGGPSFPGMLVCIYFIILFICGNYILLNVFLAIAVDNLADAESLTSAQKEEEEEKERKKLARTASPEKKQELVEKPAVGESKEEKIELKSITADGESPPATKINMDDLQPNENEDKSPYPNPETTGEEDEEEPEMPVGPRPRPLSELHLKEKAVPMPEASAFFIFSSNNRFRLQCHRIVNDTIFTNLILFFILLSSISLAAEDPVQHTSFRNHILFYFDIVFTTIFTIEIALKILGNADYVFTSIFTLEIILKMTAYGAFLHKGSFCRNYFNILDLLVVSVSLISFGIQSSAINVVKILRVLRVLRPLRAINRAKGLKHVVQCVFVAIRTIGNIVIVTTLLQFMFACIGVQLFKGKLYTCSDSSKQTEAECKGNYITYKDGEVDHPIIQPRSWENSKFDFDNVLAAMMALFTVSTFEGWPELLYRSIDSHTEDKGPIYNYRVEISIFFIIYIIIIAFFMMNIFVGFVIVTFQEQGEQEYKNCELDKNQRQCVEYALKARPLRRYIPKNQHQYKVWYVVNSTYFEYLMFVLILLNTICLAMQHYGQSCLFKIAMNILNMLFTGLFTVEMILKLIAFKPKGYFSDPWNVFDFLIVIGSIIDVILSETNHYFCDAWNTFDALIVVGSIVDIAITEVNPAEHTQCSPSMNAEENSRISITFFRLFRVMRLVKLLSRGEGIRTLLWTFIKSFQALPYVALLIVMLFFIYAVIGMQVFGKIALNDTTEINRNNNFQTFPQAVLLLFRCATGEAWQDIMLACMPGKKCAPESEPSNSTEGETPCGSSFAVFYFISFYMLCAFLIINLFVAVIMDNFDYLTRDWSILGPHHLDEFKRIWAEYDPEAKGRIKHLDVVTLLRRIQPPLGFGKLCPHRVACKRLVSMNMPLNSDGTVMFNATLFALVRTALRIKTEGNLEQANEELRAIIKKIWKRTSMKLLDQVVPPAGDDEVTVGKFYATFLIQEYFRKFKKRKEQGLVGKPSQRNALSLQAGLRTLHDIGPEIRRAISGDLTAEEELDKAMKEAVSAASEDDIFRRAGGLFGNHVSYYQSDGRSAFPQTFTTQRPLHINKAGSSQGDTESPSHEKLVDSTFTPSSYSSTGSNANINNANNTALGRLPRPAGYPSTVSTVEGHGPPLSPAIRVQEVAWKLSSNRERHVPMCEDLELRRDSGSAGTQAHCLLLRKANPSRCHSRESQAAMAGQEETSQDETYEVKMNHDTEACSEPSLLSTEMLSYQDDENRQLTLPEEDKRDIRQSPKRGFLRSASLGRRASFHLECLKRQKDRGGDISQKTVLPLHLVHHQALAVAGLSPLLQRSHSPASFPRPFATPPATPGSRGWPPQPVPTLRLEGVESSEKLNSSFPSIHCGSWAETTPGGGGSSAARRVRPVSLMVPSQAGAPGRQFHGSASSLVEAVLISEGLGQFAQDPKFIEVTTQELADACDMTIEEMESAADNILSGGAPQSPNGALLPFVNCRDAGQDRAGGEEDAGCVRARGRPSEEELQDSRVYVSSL
Chain of CaV1.2 (Q08289 whole entry partner): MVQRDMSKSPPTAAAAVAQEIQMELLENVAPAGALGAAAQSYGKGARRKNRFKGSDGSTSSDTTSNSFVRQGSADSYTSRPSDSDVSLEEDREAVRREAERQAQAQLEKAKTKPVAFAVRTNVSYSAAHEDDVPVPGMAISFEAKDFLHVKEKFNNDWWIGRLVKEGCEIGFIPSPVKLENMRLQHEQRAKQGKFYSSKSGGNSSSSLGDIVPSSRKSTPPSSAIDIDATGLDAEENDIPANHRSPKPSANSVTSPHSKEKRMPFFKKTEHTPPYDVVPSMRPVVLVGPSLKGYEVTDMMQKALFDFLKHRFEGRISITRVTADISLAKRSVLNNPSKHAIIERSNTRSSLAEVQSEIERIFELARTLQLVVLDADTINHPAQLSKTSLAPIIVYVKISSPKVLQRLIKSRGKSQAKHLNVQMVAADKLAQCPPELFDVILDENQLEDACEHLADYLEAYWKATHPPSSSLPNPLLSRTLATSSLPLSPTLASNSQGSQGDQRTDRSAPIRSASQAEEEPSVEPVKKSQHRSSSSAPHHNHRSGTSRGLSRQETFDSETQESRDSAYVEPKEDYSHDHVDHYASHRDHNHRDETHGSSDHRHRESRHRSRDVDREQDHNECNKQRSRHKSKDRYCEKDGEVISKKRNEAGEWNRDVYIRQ

Question: Which NOAEL at 14 days [1] does the source give for Cc1[nH]c2nc(N)nc(C)c2c1-c1ccc(C#N)c2c1OCO2 [DNDI-6174] here?
Answer: 80 mg/kg

Question: What about the inhibition at 100 µM [2] of the same compound?
Answer: 43%

Question: And the K01 ([3]; Hamsters, 12.5 mg/kg, fitted)?
Answer: 0.321 h⁻¹

Question: What about the K10 ([3]; Hamsters, 12.5 mg/kg, fitted) of the same compound?
Answer: 0.336 h⁻¹

Question: What about the V/F ([3]; Hamsters, 12.5 mg/kg, fitted) of the same compound?
Answer: 1.57 L/kg

Question: And the K01 ([3]; Hamsters, 25 mg/kg, fitted)?
Answer: 0.298 h⁻¹

Question: And the K10 ([3]; Hamsters, 25 mg/kg, fitted)?
Answer: 0.295 h⁻¹

Question: What about the V/F ([3]; Hamsters, 25 mg/kg, fitted) of the same compound?
Answer: 1.75 L/kg

Question: And the K01 ([3]; Hamsters, 50 mg/kg, fitted)?
Answer: 0.660 h⁻¹

Question: What about the K10 ([3]; Hamsters, 50 mg/kg, fitted) of the same compound?
Answer: 0.184 h⁻¹

Question: And the V/F ([3]; Hamsters, 50 mg/kg, fitted)?
Answer: 1.83 L/kg

Question: And the Cmax ([3]; hamster, plasma, po, 3.125 mg/kg, hamsters, 3.125 mg/kg bid, 5 days, simulated)?
Answer: 341 ng/mL

Question: And the Cmax ([3]; hamster, plasma, po, 12.5 mg/kg, Hamsters, fitted)?
Answer: 2850 ng/mL

Question: And the Cmax ([3]; hamster, plasma, po, 12.5 mg/kg, hamsters, 12.5 mg/kg bid, 5 days, simulated)?
Answer: 3690 ng/mL

Question: What about the AUC ([3]; hamster, plasma, po, 12.5 mg/kg, hamsters, 12.5 mg/kg bid, 5 days, simulated, read-out: AUC24 ss) of the same compound?
Answer: 47600 ng·h/mL

Question: What about the AUC ([3]; hamster, plasma, po, 12.5 mg/kg, hamsters, 12.5 mg/kg bid, 5 days, simulated, read-out: Cum AUC) of the same compound?
Answer: 238000 ng·h/mL

Question: What about the Cmax ([3]; hamster, plasma, po, 12.5 mg/kg, hamsters, 12.5 mg/kg qd, 5 days, simulated) of the same compound?
Answer: 2880 ng/mL

Question: And the AUC ([3]; hamster, plasma, po, 12.5 mg/kg, hamsters, 12.5 mg/kg qd, 5 days, simulated, read-out: AUC24 ss)?
Answer: 23800 ng·h/mL

Question: And the AUC ([3]; hamster, plasma, po, 12.5 mg/kg, hamsters, 12.5 mg/kg qd, 5 days, simulated, read-out: Cum AUC)?
Answer: 119000 ng·h/mL

Question: And the Cmax ([3]; hamster, plasma, po, 25 mg/kg, Hamsters, fitted)?
Answer: 5280 ng/mL

Question: What about the Cmax at 5 days ([3]; hamster, plasma, po, 25 mg/kg, hamsters, 25 mg/kg qd, 5 days, simulated) of the same compound?
Answer: 5330 ng/mL

Question: And the AUC ([3]; hamster, plasma, po, 25 mg/kg, hamsters, 25 mg/kg qd, 5 days, simulated, read-out: AUC24 ss)?
Answer: 48600 ng·h/mL

Question: And the AUC ([3]; hamster, plasma, po, 25 mg/kg, hamsters, 25 mg/kg qd, 5 days, simulated, read-out: Cum AUC)?
Answer: 243000 ng·h/mL

Question: And the Cmax ([3]; hamster, plasma, po, 50 mg/kg, Hamsters, fitted)?
Answer: 15600 ng/mL

Question: What about the Cmax ([3]; hamster, plasma, po, 50 mg/kg, hamsters, 50 mg/kg qd, 5 days, simulated) of the same compound?
Answer: 17000 ng/mL

Question: And the AUC ([3]; hamster, plasma, po, 50 mg/kg, hamsters, 50 mg/kg qd, 5 days, simulated, read-out: AUC24 ss)?
Answer: 148000 ng·h/mL

Question: What about the AUC at 5 days ([3]; hamster, plasma, po, 50 mg/kg, hamsters, 50 mg/kg qd, 5 days, simulated, read-out: Cum AUC) of the same compound?
Answer: 742000 ng·h/mL

Question: What about the AUC(0-inf) [3, 21] of the same compound?
Answer: 23600 ng·h/mL

Question: And the CL/F [3, 21]?
Answer: 8.75 mL/min/kg

Question: And the AUC(0-inf) [3, 22]?
Answer: 48400 ng·h/mL

Question: What about the CL/F [3, 22] of the same compound?
Answer: 8.58 mL/min/kg

Question: And the AUC(0-inf) [3, 23]?
Answer: 140000 ng·h/mL

Question: And the CL/F [3, 23]?
Answer: 5.62 mL/min/kg

Question: What about the “Cmax (unbound)” value [3, 24] of the same compound?
Answer: 31 ng/mL

Question: What about the Cmin [3, 24] of the same compound?
Answer: 13 ng/mL

Question: And the “Cmin (unbound)” value [3, 24]?
Answer: 1 ng/mL

Question: What about the “AUC24 ss (unbound)” value [3, 25] of the same compound?
Answer: 4280 ng·h/mL

Question: And the Cav ss [3, 25]?
Answer: 1980 ng/mL

Question: And the “Cav ss (unbound)” value [3, 25]?
Answer: 178 ng/mL

Question: And the “Cmax (unbound)” value [3, 25]?
Answer: 332 ng/mL

Question: And the Cmin [3, 25]?
Answer: 238 ng/mL

Question: What about the “Cmin (unbound)” value [3, 25] of the same compound?
Answer: 21 ng/mL

Question: What about the “Cum AUC (unbound)” value [3, 25] of the same compound?
Answer: 21400 ng·h/mL

Question: And the “AUC24 ss (unbound)” value [3, 26]?
Answer: 2140 ng·h/mL

Question: What about the Cav ss [3, 26] of the same compound?
Answer: 991 ng/mL

Question: What about the “Cav ss (unbound)” value [3, 26] of the same compound?
Answer: 89 ng/mL

Question: And the “Cmax (unbound)” value [3, 26]?
Answer: 259 ng/mL

Question: And the Cmin [3, 26]?
Answer: 23 ng/mL

Question: And the “Cmin (unbound)” value [3, 26]?
Answer: 2 ng/mL

Question: And the “Cum AUC (unbound)” value [3, 26]?
Answer: 10700 ng·h/mL

Question: What about the “AUC24 ss (unbound)” value [3, 27] of the same compound?
Answer: 4370 ng·h/mL

Question: And the Cav ss [3, 27]?
Answer: 2020 ng/mL

Question: And the “Cav ss (unbound)” value [3, 27]?
Answer: 182 ng/mL

Question: And the “Cmax (unbound)” value [3, 27]?
Answer: 480 ng/mL

Question: And the Cmin [3, 27]?
Answer: 83 ng/mL

Question: What about the “Cmin (unbound)” value [3, 27] of the same compound?
Answer: 7 ng/mL

Question: What about the “Cum AUC (unbound)” value [3, 27] of the same compound?
Answer: 21900 ng·h/mL

Question: What about the “AUC24 ss (unbound)” value [3, 28] of the same compound?
Answer: 13400 ng·h/mL

Question: What about the Cav ss [3, 28] of the same compound?
Answer: 6190 ng/mL

Question: What about the “Cav ss (unbound)” value [3, 28] of the same compound?
Answer: 557 ng/mL

Question: What about the “Cmax (unbound)” value [3, 28] of the same compound?
Answer: 1530 ng/mL

Question: And the Cmin [3, 28]?
Answer: 463 ng/mL

Question: What about the “Cmin (unbound)” value [3, 28] of the same compound?
Answer: 42 ng/mL

Question: What about the “Cum AUC (unbound)” value [3, 28] of the same compound?
Answer: 66800 ng·h/mL

Question: And the CC50 [4]?
Answer: > 64 µM

Question: And the IC50 [5]?
Answer: 0.88 µM

Question: What about the activity remaining [6] of the same compound?
Answer: > 50%

Question: What about the activity remaining [7] of the same compound?
Answer: > 50%

Question: And the IC50 [8]?
Answer: 22 µM

Question: What about the activity remaining [9] of the same compound?
Answer: > 50%

Question: What about the activity remaining [10] of the same compound?
Answer: > 50%

Question: And the activity remaining [11]?
Answer: > 50%

Question: What about the activity remaining [12] of the same compound?
Answer: > 50%

Question: What about the IC50 [13] of the same compound?
Answer: 16 µM

Question: And the fraction unbound [14]?
Answer: 0.63

Question: What about the XC50 [15] of the same compound?
Answer: > 50 µM

Question: And the pXC50 [15]?
Answer: < 4.3

Question: What about the “activity (% of DMSO control)” value [16] of the same compound?
Answer: 89.6%

Question: And the “activity (% of DMSO control)” value [17]?
Answer: 90.2%

Question: What about the “activity (% of DMSO control)” value [18] of the same compound?
Answer: 98.7%

Question: What about the “activity (% of DMSO control)” value [19] of the same compound?
Answer: 89.6%

Question: What about the “activity (% of DMSO control)” value [20] of the same compound?
Answer: 73.9%
